Assay results: patent US20170296621A1, “NOD2-DEPENDENT PATHWAY OF CYTOPROTECTION OF STEM CELLS” (INSTITUT PASTEUR, priority 2012, published 2017)
Counter-ions that a name gives are not always drawn.

Experiments:
crypts from Nod1 KO mice = assay: Organoid formation from crypts of Nod1 KO mice upon MAMP stimulation; assay type: cell-based
Excerpt: FIG. 4 illustrates the fold change in number of organoids, formed from extracted crypts, from mice knocked out for Nod1 or Nod2 genes, upon different MAMPs stimulation conditions. By definition, the fold change of the untreated organoids is set to 1, and the fold changes upon the various stimulation conditions applied are by reference to the non-stimulated organoids.
Intestinal crypts were obtained following a protocol already described (Sato et al., 2009). After isolation small intestines were isolated, flushed with cold PBS followed by 0.3% bleach and again PBS, opened longitudinally and the villi were removed. […] After severals vigourous shakings the crypts, released in the supernatant, were passed through a cell strainer 70 μm (BD Falcon), spun down at 800 rpm, resuspended in DMEM and counted. […]

intestinal crypts [1] = assay: Organoid formation from isolated intestinal crypts upon MAMP stimulation; assay type: cell-based, mice; details: wt crypts; 10 μg/ml
Protocol: Crypts were stimulated with soluble sonicated peptidoglycan (PGN), muramyl-dipeptide (MDP), muramyl-tetrapeptide (Tetra-dap), Escherichia coli lipopolysaccharide (LPS) (each at 10 μg/ml), 10 ng/ml flagellin (Fla), 500 ng/ml synthetic lipoprotein (Pam3CSK), or 1 μM unmethylated CpG dinucleotides (CpG). The average number of non-stimulated organoids (control) is around 50, and the fold change value of the control is fixed to 1. The fold change upon the various MAMPs applied is thus by reference to non-stimulated organoids (Ctrl).
Intestinal crypts were obtained following a protocol already described (Sato et al., 2009). After isolation small intestines were isolated, flushed with cold PBS followed by 0.3% bleach and again PBS, opened longitudinally and the villi were removed. The tissues were cutted in small pieces, washed in 5 mM PBS/EDTA for 5 min, and subsequently incubated in fresh 5 mM PBS/EDTA for 30 min on ice. After severals vigourous shakings the crypts, released in the supernatant, were passed through a cell strainer 70 μm (BD Falcon), spun down at 800 rpm, resuspended in DMEM and counted. The volume corresponding to 500 crypts was distributed in two tubes per condition, and spun down again. […] The crypts were embedded in 50 μl of growth factor reduced matrigel (BD Biosciences) in a 24-well plates, incubate at 37° C. […]

intestinal crypts [2] = assay: Proliferation index and regenerative crypts after doxorubicin injection; assay type: in vivo, mice; details: for Percentage of regenerative crypts / Relative size of crypts: 72 h after injection; for Relative size of crypts: crypt width×crypt height
Protocol: FIG. 13 illustrates the percentage of EdU-positive cells per crypt, in wild-type or Nod2 KO mice, after 2 hours of EdU (5-ethynyl-2-deoxyuridine) treatment.
For the analysis of proliferation in the tissue, 10 mg/kg EdU were injected IP and the animals were sacrificed after 2 h. The Click-iT® EdU Alexa Fluor® 488 Imaging Kit was used on paraffin slides that were processed according to the manufacturer's instructions.
The proliferation index was calculated as a percentage of EdU positive cells over the total number of cells in each crypt. Data from five mice each group were obtained and at least 50 crypts per section were examined for all histological parameters. A regenerative crypt was defined as a crypt containing more than 10 EdU positive cells per crypt. Relative crypt size was determined as crypt width×crypt height.
In order to evaluate the capacity of stem cells to survive and repair the damaged tissue upon doxorubicin-treatment, the inventors used a modified clonogenic microcolony assay (Tustison et al). At 72 h wt mice presented higher percentage of regenerative/surviving crypts than in Nod2 KO mice and this was associated with a bigger size of the crypts (Table 1).

[3] = test system: intestinal stem cells in crypts; assay: Organoid formation under induced stress (doxorubicin or H2O2); assay type: cell-based, mice; details: 1 μM; after 4 days of treatment
Protocol: By definition, the fold change of the untreated organoids is set to 1 in the absence of any additional stress, and the fold changes upon the various stimulation or stress conditions applied are by reference to the non-stimulated non-stressed organoids.
Doxorubicin (1 μM) or H2O2 (200 μM) are added during the embedding of the crypts in the matrigel.
Intestinal crypts were obtained following a protocol already described (Sato et al., 2009). After isolation small intestines were isolated, flushed with cold PBS followed by 0.3% bleach and again PBS, opened longitudinally and the villi were removed. The tissues were cutted in small pieces, washed in 5 mM PBS/EDTA for 5 min, and subsequently incubated in fresh 5 mM PBS/EDTA for 30 min on ice. After severals vigourous shakings the crypts, released in the supernatant, were passed through a cell strainer 70 μm (BD Falcon), spun down at 800 rpm, resuspended in DMEM and counted. The volume corresponding to 500 crypts was distributed in two tubes per condition, and spun down again. […] The crypts were embedded in 50 μl of growth factor reduced matrigel (BD Biosciences) in a 24-well plates, incubate at 37° C. 20 min and overload with 500 μl of crypts medium (CM) as described previously (Sato et al 2009). […]

intestinal crypts [4] = assay: Caspase-3 positive crypts in doxorubicin-treated mice; assay type: in vivo; details: intraperitoneal, 6 hours
Protocol: FIG. 11 depicts the percentage of caspase-3 positive crypts in different conditions. The results are obtained after 6 hours.
Line 1: WT, non-treated mice. Line 2: Nod2 KO mice, non-treated. Line 3: WT mice, treated with doxorubicin during 6 hours. Line 4: Nod2 KO mice, treated with doxorubicin during 6 hours. It can be observed that the absence of Nod2 induced more death in the crypts.
B6.129P2-Lgr5^tm1(cre/ESR1)Cle/mice (Lgr5-EGFP) (Barker et al., 2007) were purchased from The Jackson Laboratories. Card4/Nod1 (Nod1 KO) mice were generated by Millenium pharmaceuticals Boston. Card15/Nod2 deficient C57BL/6J (Nod2 KO) (Barreau et al., 2007) were provided by J.-P. Hugot (Hôpital Robert Debré, Paris, France). All mice were kept in specific pathogen-free conditions. When indicated the mice were injected intraperitoneally with 200 μg of EdU (Invitrogen) 2 hrs prior to sacrifice or with 10 mg/kg doxorubicin hydrochloride (Sigma) and sacrificed at indicated time points. […]
Doxorubicin in vivo. […] The percentage of crypts presenting at least one caspase3-positve cell was counted. […] To evaluate if upon doxorubicin treatment the proliferation index was affected, the number of EdU positive cells per crypts was counted and the percentage versus the total number of cells in the crypts was calculated.

[5] = test system: wt stem cells (Lgr5-EGFP); assay: Single cells stimulation: organoids from sorted wt stem cells; assay type: cell-based, mice; details: wt stem cells alone; 500 cells per well
Protocol: FIG. 8 depicts the average number of organoids formed per well, depending on the cell types seeded in the well, without stimulation, or under stimulation with MDP. 500 cells were seeded per well in a 96-wells-plate.
Isolated crypts from Lgr5-EGFP mice or Nod2KO mice were incubated in HBSS w/o Ca^+2 and Mg^2+ supplemented with 0.3 U/ml Dispase (BD Biosciences), 0.8 U/ml DNase (Sigma) and 10 μM Y-27632 (Sigma) for 30 min at 37° C.
Dissociated cells were washed with 1% PBS/BSA and stained with CD24-APC antibody (clone M1/69 BioLegend) and EpCam Pe-Cy7 (clone G8.8 BioLegend) for 20 min at 4° C., resuspended in crypts medium supplemented with 1 μM N-acetyl-L-cystein, 10 μM Jag-1 (Anaspec) and 10 μM Y-27632 (single cells medium-SCM) and filtered with a 20 μm mesh and analyzed with MoFlo legacy (Beckman Coulter).
Singlets of viable epithelial cells were gated by negative staining for propidium iodide and positive staining for EpCam. The stem cells and Paneth cells were isolated respectively as GFP^hi+ population, and GFP^−CD24^hi+SSC^hi population.
Stem cells and Paneth cells derived from Lgr5-EGFP or Nod2KO mice were cultured alone or in different combinations. 500 cells from each condition were re-suspended in 100 μl of single cells medium with or without MAMPs and, when indicated, with 100 ng/ml wnt3 (R&D), seeded in 96-wells round-bottom plates and incubated on ice for 15 min. […]

## CC(=O)NC1C(O)OC(CO)C(O)C1OC(C)C(=O)NC(C)C(=O)NC(CCC(=O)O)C(N)=O (stereo not shown) [MDP-ctrl]
Crypts from Nod1 KO mice
  number of organoids compared with control (in words): No difference was observed

## CC(=O)NC1C(O)OC(CO)C(O)C1OC(C)C(=O)NC(C)C(=O)NC(CCC(=O)NC(CCCC(N)C(=O)O)C(=O)NC(C)C(=O)O)C(=O)O (stereo not shown) [Tetra-dap, MurNAc-Tetra(DAP)]
Intestinal crypts [1]
  number of organoids compared with non-stimulated (in words): did not observe any differences and not

## COc1cccc2c1C(=O)c1c(O)c3c(c(O)c1C2=O)C[C@@](O)(C(=O)CO)C[C@@H]3O[C@H]1C[C@H](N)[C@H](O)[C@H](C)O1 [doxorubicin, doxorubicin hydrochloride]
Intestinal crypts [2]; Nod2 KO mice
  Percentage of regenerative crypts: 33.9 ± 9.4 %
  Relative size of crypts: 2538 ± 180
Intestinal crypts [2]; Nod2 KO mice, following days
  proliferation index in crypts (in words): low rate of proliferation
Intestinal crypts [2]; both wt and Nod2 KO mice, 6h until 24 h after injection
  proliferation index in crypts (in words): decrease in the rate of proliferation
Intestinal crypts [2]; wt mice, 48 h until 72 h
  proliferation index in crypts (in words): reaching almost the same rate observed in the non-treated mice
Intestinal crypts [2]; wt mice
  Percentage of regenerative crypts: 59.9 ± 6.4%
  Relative size of crypts: 3231 ± 105
[3]
  less organoids after treatment: 50%
Intestinal crypts [4]; Nod2 KO mice
  percentage of crypts with apoptotic (caspase-3 positive) cells: 54%
Intestinal crypts [4]; wt mice
  percentage of crypts with apoptotic (caspase-3 positive) cells: 30%

B1: wnt ligand: 100 ng/ml wnt3 (R&D) added to stem cells (protein, UniProt P56703 22-355, looked up)
Proto-oncogene Wnt-3: GYPIWWSLALGQQYTSLGSQPLLCGSIPGLVPKQLRFCRNYIEIMPSVAEGVKLGIQECQHQFRGRRWNCTTIDDSLAIFGPVLDKATRESAFVHAIASAGVAFAVTRSCAEGTSTICGCDSHHKGPPGEGWKWGGCSEDADFGVLVSREFADARENRPDARSAMNKHNNEAGRTTILDHMHLKCKCHGLSGSCEVKTCWWAQPDFRAIGDFLKDKYDSASEMVVEKHRESRGWVETLRAKYSLFKPPTERDLVYYENSPNFCEPNPETGSFGTRDRTCNVTSHGIDGCDLLCCGRGHNTRTEKRKEKCHCIFHWCCYVSCQECIRIYDVHTCK
[5]
  average of organoids per well: around 3 organoids per well
